According to paper PMC4648050, “Discovery of Inhibitors of Trypanosoma brucei by Phenotypic Screening of a Focused Protein Kinase Library” (Chemmedchem, 2015):
In brackets after ≈: the same amount, converted by molar mass.

Legend:
[1] = biological target: T1, IKKe (Homo sapiens, UniProt Q14164); test: Kinase panel: IKKe; assay type: biochemical, human/mammalian; conditions: compound at 10 μM, read-out: % of activity respect of the control
T1 sequence (Q14164 1-716): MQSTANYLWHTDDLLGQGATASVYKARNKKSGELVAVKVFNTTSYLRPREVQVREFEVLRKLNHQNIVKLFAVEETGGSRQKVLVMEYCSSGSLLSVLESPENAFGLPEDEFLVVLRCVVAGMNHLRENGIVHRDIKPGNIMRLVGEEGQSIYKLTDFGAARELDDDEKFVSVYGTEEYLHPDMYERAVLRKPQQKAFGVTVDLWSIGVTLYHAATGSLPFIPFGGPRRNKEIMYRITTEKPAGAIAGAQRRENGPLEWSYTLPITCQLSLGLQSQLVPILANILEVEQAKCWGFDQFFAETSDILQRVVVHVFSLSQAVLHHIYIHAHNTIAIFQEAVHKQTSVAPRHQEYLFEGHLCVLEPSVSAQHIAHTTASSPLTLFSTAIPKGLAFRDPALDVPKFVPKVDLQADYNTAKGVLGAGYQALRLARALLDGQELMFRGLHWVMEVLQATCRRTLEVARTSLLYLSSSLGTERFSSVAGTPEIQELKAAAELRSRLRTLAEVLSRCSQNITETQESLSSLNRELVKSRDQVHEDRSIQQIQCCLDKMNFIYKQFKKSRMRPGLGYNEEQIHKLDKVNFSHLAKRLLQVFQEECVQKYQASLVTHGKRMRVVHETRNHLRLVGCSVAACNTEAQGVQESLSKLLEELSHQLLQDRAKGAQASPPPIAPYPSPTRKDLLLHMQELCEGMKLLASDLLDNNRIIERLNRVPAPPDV
Method: (§1) The DDU kinase-focused compound set contains lead-like scaffolds that are designed to target protein kinases; they have kinase hinge binding motifs. Four of the 1H-imidazopyrazinones were screened against a human/mammalian kinase panel at the University of Dundee (http://www.kinase-screen.mrc.ac.uk) at a concentration of 10 μM. At the time of testing the panel contained 79 mammalian kinases selected to provide a broad coverage of the mammalian kinome (∼500 kinases in the human genome).[3] None of the compounds were active against any of the kinases at 10 μM.

[2] = biological target: MNK1 (Homo sapiens, UniProt Q9BUB5); test: Kinase panel: MNK1; assay type: biochemical, human/mammalian; conditions: compound at 10 μM, read-out: % of activity respect of the control
Sequence of MNK1 (Q9BUB5 whole entry): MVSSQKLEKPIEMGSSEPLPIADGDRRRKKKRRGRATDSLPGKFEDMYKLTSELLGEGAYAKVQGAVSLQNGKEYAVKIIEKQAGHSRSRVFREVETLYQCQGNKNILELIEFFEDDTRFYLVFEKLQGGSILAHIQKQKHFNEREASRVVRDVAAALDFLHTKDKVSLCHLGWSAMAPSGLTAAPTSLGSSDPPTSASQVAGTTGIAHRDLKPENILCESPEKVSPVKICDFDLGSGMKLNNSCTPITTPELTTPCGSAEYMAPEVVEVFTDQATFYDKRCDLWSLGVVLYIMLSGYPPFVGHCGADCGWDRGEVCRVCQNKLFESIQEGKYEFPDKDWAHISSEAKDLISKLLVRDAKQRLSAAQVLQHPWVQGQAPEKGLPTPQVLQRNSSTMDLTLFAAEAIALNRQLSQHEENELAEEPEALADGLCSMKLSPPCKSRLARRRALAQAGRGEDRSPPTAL
Method: as §1

[3] = Kinetic aqueous solubility (laser nephelometry); assay type: physicochemical; conditions: Milli-Q water with 2.5% DMSO, kinetic from dmso stock, range 250–12 μM, read-out: Aq. Sol. (aqueous kinetic solubility)
Method: Solubility experiments: The kinetic aqueous solubility of the test compounds was measured using laser nephelometry. Compounds were subject to serial dilution from 10 mM to 0.5 mM in DMSO. An aliquot was then mixed with Milli-Q H2O to obtain an aqueous dilution plate with a final concentration range of 250–12 μM, with a final DMSO concentration of 2.5 %. Triplicate aliquots were transferred to a flat-bottomed polystyrene plate which was immediately read on the NEPHELOstar (BMG Lab Technologies). The amount of laser scatter caused by insoluble particulates (relative nephelometry units, RNU) was plotted against compound concentration using a segmental regression fit, with the point of inflection being quoted as the compounds′ aqueous solubility (in μM).

[4] = biological target: EF2K (Homo sapiens, UniProt O00418); test: Kinase panel: EF2K; assay type: biochemical, human/mammalian; conditions: compound at 10 μM, read-out: % of activity respect of the control
Method: as §1

[5] = biological target: PAK6 (Homo sapiens, UniProt Q9NQU5); test: Kinase panel: PAK6; assay type: biochemical, human/mammalian; conditions: compound at 10 μM, read-out: % of activity respect of the control
Sequence of PAK6 (Q9NQU5 whole entry): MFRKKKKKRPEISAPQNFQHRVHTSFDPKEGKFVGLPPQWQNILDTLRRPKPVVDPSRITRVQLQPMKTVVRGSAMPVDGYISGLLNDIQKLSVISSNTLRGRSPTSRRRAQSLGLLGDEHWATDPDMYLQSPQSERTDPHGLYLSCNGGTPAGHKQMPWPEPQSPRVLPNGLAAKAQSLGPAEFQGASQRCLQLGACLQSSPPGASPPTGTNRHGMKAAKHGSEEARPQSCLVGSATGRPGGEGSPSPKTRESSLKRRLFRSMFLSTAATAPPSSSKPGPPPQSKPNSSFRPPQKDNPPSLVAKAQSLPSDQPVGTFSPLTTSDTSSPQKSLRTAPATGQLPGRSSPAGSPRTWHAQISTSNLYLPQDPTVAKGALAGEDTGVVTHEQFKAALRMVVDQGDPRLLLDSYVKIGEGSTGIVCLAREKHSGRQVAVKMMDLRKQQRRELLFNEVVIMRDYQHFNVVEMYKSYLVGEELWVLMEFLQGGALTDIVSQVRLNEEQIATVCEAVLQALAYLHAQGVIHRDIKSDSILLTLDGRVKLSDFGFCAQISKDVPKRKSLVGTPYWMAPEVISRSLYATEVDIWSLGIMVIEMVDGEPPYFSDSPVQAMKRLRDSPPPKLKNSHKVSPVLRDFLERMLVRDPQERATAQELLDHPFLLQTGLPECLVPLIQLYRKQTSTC
Method: as §1

[6] = biological target: T2, NEK2a (Homo sapiens, UniProt P51955); test: Kinase panel: NEK2a; assay type: biochemical, human/mammalian; conditions: compound at 10 μM, read-out: % of activity respect of the control
T2 sequence (P51955 1-445): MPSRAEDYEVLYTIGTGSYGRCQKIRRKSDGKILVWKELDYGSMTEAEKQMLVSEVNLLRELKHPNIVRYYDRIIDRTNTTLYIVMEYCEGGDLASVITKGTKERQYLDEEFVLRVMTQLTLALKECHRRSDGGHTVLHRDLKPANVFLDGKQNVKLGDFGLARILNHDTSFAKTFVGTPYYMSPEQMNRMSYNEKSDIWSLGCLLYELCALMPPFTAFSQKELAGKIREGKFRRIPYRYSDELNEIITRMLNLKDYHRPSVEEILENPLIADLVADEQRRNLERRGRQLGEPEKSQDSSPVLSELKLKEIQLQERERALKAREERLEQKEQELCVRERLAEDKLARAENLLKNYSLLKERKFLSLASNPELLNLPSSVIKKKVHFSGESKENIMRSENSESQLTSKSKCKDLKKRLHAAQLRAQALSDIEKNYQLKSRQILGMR
Method: as §1

[7] = biological target: T3, ERK8 (Homo sapiens, UniProt Q8TD08); test: Kinase panel: ERK8; assay type: biochemical, human/mammalian; conditions: compound at 10 μM, read-out: % of activity respect of the control
T3 sequence (Q8TD08 1-544): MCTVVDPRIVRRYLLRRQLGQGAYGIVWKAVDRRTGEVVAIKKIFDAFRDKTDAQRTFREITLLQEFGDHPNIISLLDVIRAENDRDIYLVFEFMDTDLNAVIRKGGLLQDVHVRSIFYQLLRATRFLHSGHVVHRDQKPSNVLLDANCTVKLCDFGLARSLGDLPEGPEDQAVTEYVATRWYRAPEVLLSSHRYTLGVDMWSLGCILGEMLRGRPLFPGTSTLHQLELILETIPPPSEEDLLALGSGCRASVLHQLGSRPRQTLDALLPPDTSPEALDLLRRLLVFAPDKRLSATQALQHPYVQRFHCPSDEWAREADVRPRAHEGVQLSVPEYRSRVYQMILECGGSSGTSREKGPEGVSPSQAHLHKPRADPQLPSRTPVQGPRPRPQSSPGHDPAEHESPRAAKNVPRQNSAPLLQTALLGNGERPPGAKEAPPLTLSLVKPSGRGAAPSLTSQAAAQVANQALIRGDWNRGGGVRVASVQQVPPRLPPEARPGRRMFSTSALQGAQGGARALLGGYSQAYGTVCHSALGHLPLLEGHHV
Method: as §1

[8] = biological target: PKA (Homo sapiens, UniProt P17612); test: Kinase panel: PKA; assay type: biochemical, human/mammalian; conditions: compound at 10 μM, read-out: % of activity respect of the control
Method: as §1

[9] = biological target: EPH A2 (Homo sapiens, UniProt P29317); test: Kinase panel: EPH A2; assay type: biochemical, human/mammalian; conditions: compound at 10 μM, read-out: % of activity respect of the control
Sequence of EPH A2 (P29317 24-976): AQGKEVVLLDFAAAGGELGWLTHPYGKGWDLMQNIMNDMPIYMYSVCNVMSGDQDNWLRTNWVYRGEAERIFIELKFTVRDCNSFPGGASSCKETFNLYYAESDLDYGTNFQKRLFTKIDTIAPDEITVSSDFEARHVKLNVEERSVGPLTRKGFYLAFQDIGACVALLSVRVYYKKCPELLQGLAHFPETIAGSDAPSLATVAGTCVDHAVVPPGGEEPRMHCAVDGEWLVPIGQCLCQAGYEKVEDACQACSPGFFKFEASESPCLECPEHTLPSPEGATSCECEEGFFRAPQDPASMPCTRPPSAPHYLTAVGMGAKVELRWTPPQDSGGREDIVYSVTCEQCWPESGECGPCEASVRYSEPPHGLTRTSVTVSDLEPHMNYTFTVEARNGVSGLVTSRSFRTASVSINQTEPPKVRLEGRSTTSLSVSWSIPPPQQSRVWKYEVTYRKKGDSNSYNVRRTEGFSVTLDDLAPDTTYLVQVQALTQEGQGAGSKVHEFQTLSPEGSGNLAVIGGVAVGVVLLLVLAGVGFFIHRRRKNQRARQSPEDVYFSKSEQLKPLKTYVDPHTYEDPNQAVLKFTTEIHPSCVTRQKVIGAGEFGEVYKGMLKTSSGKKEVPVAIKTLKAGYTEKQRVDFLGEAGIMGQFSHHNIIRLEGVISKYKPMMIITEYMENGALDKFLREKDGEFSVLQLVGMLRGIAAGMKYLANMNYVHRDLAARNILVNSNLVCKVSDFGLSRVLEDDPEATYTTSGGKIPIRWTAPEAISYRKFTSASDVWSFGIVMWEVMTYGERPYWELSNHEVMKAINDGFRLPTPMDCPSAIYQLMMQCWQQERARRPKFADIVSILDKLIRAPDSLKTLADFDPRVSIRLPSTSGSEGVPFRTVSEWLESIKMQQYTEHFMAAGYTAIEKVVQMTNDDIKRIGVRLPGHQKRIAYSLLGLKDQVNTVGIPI
Method: as §1

[10] = biological target: MST4 (Homo sapiens, UniProt Q9P289); test: Kinase panel: MST4; assay type: biochemical, human/mammalian; conditions: compound at 10 μM, read-out: % of activity respect of the control
Sequence of MST4 (Q9P289 whole entry): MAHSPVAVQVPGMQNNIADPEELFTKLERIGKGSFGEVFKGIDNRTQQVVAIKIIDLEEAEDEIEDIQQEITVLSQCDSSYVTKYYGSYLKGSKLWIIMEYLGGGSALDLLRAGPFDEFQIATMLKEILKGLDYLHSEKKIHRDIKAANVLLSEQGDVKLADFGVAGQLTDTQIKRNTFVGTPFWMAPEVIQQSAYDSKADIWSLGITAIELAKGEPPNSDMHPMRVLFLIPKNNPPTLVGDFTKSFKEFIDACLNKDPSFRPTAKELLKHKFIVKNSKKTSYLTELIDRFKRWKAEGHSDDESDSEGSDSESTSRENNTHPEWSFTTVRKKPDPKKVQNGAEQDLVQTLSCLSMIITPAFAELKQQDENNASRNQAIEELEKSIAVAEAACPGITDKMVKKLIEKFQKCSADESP
Method: as §1

[11] = biological target: SmMLCK (Homo sapiens, UniProt Q15746); test: Kinase panel: SmMLCK; assay type: biochemical, human/mammalian; conditions: compound at 10 μM, read-out: % of activity respect of the control
Sequence of SmMLCK (Q15746 923-1914): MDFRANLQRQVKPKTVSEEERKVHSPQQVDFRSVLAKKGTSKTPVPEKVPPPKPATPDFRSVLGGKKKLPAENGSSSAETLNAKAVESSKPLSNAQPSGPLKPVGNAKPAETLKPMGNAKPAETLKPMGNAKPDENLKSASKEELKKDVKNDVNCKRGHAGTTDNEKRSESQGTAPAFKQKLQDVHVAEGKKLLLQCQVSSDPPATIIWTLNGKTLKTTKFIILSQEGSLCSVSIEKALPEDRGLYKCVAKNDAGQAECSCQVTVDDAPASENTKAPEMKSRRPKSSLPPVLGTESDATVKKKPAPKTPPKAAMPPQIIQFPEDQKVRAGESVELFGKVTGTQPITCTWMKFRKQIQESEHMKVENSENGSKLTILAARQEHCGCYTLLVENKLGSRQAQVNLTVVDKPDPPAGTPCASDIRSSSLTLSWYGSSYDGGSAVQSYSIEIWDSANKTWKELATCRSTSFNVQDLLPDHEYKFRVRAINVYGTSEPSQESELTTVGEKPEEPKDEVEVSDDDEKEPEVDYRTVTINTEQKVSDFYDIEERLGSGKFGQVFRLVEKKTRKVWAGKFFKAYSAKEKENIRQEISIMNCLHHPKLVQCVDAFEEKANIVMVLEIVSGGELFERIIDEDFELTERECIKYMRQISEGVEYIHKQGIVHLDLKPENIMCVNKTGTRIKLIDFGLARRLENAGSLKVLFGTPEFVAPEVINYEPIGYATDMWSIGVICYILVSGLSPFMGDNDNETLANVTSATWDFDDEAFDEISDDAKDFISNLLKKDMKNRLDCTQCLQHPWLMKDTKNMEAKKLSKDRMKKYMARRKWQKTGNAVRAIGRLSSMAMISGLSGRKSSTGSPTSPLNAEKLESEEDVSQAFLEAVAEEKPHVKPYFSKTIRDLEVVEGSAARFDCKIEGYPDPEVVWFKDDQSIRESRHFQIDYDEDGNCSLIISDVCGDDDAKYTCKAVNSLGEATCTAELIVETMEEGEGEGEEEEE
Method: as §1

[12] = biological target: p38a MAPK (Homo sapiens, UniProt Q16539); test: Kinase panel: p38a MAPK; assay type: biochemical, human/mammalian; conditions: compound at 10 μM, read-out: % of activity respect of the control
Sequence of p38a MAPK (Q16539 whole entry): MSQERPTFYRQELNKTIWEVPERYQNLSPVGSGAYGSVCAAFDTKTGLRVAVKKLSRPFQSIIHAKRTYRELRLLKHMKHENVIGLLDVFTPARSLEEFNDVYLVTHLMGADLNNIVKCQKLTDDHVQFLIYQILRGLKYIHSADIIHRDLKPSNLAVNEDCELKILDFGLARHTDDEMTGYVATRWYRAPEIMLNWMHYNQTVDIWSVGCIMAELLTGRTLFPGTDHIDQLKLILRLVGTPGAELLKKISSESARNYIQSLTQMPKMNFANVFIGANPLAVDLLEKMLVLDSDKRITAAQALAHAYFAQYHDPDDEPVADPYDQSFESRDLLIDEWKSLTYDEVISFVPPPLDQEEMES
Method: as §1

[13] = biological target: PIM2 (Homo sapiens, UniProt Q9P1W9); test: Kinase panel: PIM2; assay type: biochemical, human/mammalian; conditions: compound at 10 μM, read-out: % of activity respect of the control
Sequence of PIM2 (Q9P1W9 whole entry): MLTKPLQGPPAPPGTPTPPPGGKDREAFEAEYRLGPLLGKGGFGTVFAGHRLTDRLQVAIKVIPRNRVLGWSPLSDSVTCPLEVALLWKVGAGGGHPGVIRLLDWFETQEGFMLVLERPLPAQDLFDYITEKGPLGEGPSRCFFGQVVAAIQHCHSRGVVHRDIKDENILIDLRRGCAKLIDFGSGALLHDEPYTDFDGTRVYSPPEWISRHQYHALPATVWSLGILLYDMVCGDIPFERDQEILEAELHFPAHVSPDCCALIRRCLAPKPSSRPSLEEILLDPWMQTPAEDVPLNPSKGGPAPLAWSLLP
Method: as §1

Row | Structure (SMILES) | remaining activity at 10 µM [1] [%] | remaining activity at 10 µM [2] [%] | solubility kinetic [3] [µM] | remaining activity at 10 µM [4] [%] | remaining activity at 10 µM [5] [%] | remaining activity at 10 µM [6] [%] | remaining activity at 10 µM [7] [%] | remaining activity at 10 µM [8] [%] | remaining activity at 10 µM [9] [%] | remaining activity at 10 µM [10] [%] | remaining activity at 10 µM [11] [%] | remaining activity at 10 µM [12] [%] | remaining activity at 10 µM [13] [%]
1 | CC(c1ccccc1)n1c(=O)[nH]c2ncc(-c3ccc(F)cc3)nc21 (stereo not shown) [Compound 1] | 106 | 83 | < 12 | 93 | 89 | 117 | 73 | 87 | 105 | 90 | 80 | 88 | 113
2 | O=c1[nH]c2ncc(-c3ccc(F)cc3)nc2n1CC1CC1 [Compound 10] | 94 | 93 | – | 92 | 98 | 101 | 70 | 93 | 96 | 92 | 74 | 87 | 111
3 | O=c1[nH]c2ncc(-c3ccc(F)cc3)nc2n1C1CCCCC1 [Compound 12, 1-Cyclohexyl-6-(4-fluorophenyl)-1H-imidazo[4,5-b]pyrazin-2(3H)-one] | 88 | 93 | 55 (≈ 17.2 µg/mL) | 98 | 106 | 93 | 80 | 95 | 97 | 100 | 89 | 86 | 111
4 | C[C@H](c1ccccc1)n1c(=O)[nH]c2ncc(-c3ccccc3)nc21 [Compound 14, (R)-6-Phenyl-1-(1-phenylethyl)-1H-imidazo[4,5-b]pyrazin-2(3H)-one] | 91 | 76 | < 12 | 79 | 88 | 96 | 79 | 72 | 89 | 88 | 64 | 88 | 96
5 | O=c1[nH]c2ncc(-c3ccccc3CO)nc2n1C1CCCCC1 [Compound 28] | – | – | > 250 | – | – | – | – | – | – | – | – | – | –
